From ChEMBL document CHEMBL5390265, “Design, Synthesis, and Pharmacological Evaluation of Multisubstituted Pyrido[4,3-d]pyrimidine Analogues Bearing Deuterated Methylene Linkers as Potent KRASG12D Inhibitors” (J Med Chem, 2023) come the findings set out here.

The IC50 is the concentration needed to halve the response being measured.

Structures are written as SMILES.

Common to all, as to type: functional, cell-based
In one assay the test system is ASPC1. Nature of the assay: Antiproliferative activity against human ASPC1 cells harboring […] assessed as inhibition of cell growth incubated for 5 days by crystal violet staining analysis.
A further assay deals with A549. Nature of the assay: Antiproliferative activity against human A549 cells harboring […] assessed as inhibition of cell growth incubated for 5 days by crystal violet staining analysis.
Another assay relates to NCI-H1299. The assay can be described thus: Antiproliferative activity against human NCI-H1299 cells harboring KRAS wild type assessed as inhibition of cell growth incubated for 5 days by crystal violet staining analysis. The conditions noted are these: NCI-H1299, 120 h.
The next assay concerns AGS. Nature of the assay: Antiproliferative activity against human AGS cells harboring […] assessed as inhibition of cell growth incubated for 5 days by crystal violet staining analysis.

Regarding `C#CCN(C)C(=O)OC[C@@H]1CC[C@]2(COc3nc(N4C[C@H]5CC[C@@H](C4)N5)c4cnc(-c5cc(O)cc6ccc(F)c(C#C)c56)c(F)c4n3)CCCN12`, the IC50 in the assay on ASPC1 (Homo sapiens, ASPC1, 120 h) is 23.9 nM; with A549 (Homo sapiens, A549, 120 h), 1020 nM; in the assay with NCI-H1299, over 5000 nM; in the assay with AGS (Homo sapiens, AGS, 120 h), 15.4 nM.

With `C#CCN(C)C(=O)OC[C@H]1CC[C@@]2(COc3nc(N4C[C@H]5CC[C@@H](C4)N5)c4cnc(-c5cc(O)cc6ccc(F)c(C#C)c56)c(F)c4n3)CCCN12` (racemic), the IC50 was 39.4 nM in the assay with ASPC1 (aspc1), 1760 nM with A549 (a549), over 5000 nM in the assay with NCI-H1299 and 25.5 nM with AGS (ags).

On to `[2H]C([2H])(Oc1nc(N2C[C@H]3CC[C@@H](C2)N3)c2cnc(-c3cccc4c(F)cc(F)c(C#C)c34)c(F)c2n1)C12CCCN1CC(=C(F)F)C2` (stereo not given in full), for which the IC50 with ASPC1 (Homo sapiens, ASPC1, 120 h) is over 50 nM; in the assay on A549 (Homo sapiens, A549, 120 h), over 5000 nM; in the assay on NCI-H1299, over 5000 nM; in the assay with AGS (Homo sapiens, AGS, 120 h), over 50 nM.

`C#Cc1c(F)ccc2cc(O)cc(-c3ncc4c(N5C[C@H]6CC[C@@H](C5)N6)nc(OC(C)C56CCCN5CC(=C)C6)nc4c3F)c12` (stereo not given in full): the IC50 in the assay with ASPC1 (Homo sapiens, ASPC1, 120 h) was over 50 nM; in the assay with A549 (Homo sapiens, A549, 120 h) it was 4500 nM; in the assay on NCI-H1299, over 5000 nM; in the assay on AGS (Homo sapiens, AGS, 120 h), over 50 nM.

Turning to `C#Cc1c(F)ccc2cc(O)cc(-c3ncc4c(N5C[C@H]6CC[C@@H](C5)N6)nc(OC[C@]56CCCN5[C@@H](COC(=O)NCC57C[C@H]8C[C@@H](C5)C[C@@H](C7)C8)CC6)nc4c3F)c12` (mixture of isomers), the IC50 with ASPC1 (Homo sapiens, ASPC1, 120 h) is 42.2 nM; in the assay on A549 (Homo sapiens, A549, 120 h) it was over 5000 nM; with NCI-H1299, over 5000 nM; with AGS (Homo sapiens, AGS, 120 h), 12.6 nM.

Turning to `C#Cc1c(F)ccc2cc(O)cc(-c3ncc4c(N5C[C@H]6CC[C@@H](C5)N6)nc(OC[C@]56CCCN5[C@@H](Cn5cc(CCC#N)nn5)CC6)nc4c3F)c12` (racemic), the IC50 with ASPC1 (Homo sapiens, ASPC1, 120 h) was over 50 nM; in the assay on A549 (Homo sapiens, A549, 120 h), over 5000 nM; in the assay with NCI-H1299, over 5000 nM; in the assay on AGS (Homo sapiens, AGS, 120 h) it was over 50 nM.

Turning to `C#Cc1c(F)ccc2cc(O)cc(-c3ncc4c(N5C[C@H]6CC[C@@H](C5)N6)nc(NCCCn5cc(COCC67CCCN6CC(=C)C7)nn5)nc4c3F)c12` (stereo not given in full), the IC50 with ASPC1 (Homo sapiens, ASPC1, 120 h) was over 50 nM; with A549 (Homo sapiens, A549, 120 h) it was over 5000 nM; with NCI-H1299, over 5000 nM; with AGS (Homo sapiens, AGS, 120 h), over 50 nM.

Consider `[2H]C([2H])(Oc1nc(N2C[C@H]3CC[C@@H](C2)N3)c2cnc(-c3cc(N)cc4cccc(C#C)c34)c(F)c2n1)C12CCCN1CC(=C(F)F)C2` (stereo not given in full), for which the IC50 in the assay on ASPC1 (Homo sapiens, ASPC1, 120 h) was 2 nM; in the assay on A549 (Homo sapiens, A549, 120 h) it was 2180 nM; in the assay with NCI-H1299, 2500 nM; in the assay with AGS (Homo sapiens, AGS, 120 h) it was 1.2 nM.

As to `[2H]C(Oc1nc(N2C[C@H]3CC[C@@H](C2)N3)c2cnc(-c3cc(O)cc4ccc(F)c(C#C)c34)c(F)c2n1)C12CCCN1CC(=C)C2` (stereo not given in full), the IC50 in the assay on ASPC1 (Homo sapiens, ASPC1, 120 h) is 2.1 nM; in the assay on A549 (Homo sapiens, A549, 120 h), 731 nM; in the assay on NCI-H1299 it was over 5000 nM; in the assay with AGS (Homo sapiens, AGS, 120 h), 1.3 nM.

Consider `[2H]C([2H])(Oc1nc(N2C[C@H]3CC[C@@H](C2)N3C)c2cnc(-c3cc(O)cc4ccc(F)c(C#C)c34)c(F)c2n1)C12CCCN1CC(=C(F)F)C2` (stereo not given in full), for which the IC50 with ASPC1 (Homo sapiens, ASPC1, 120 h) was over 50 nM; in the assay with A549 (Homo sapiens, A549, 120 h), over 5000 nM; in the assay on NCI-H1299 it was over 5000 nM; in the assay with AGS (Homo sapiens, AGS, 120 h), over 50 nM.

For the molecule `C#Cc1c(F)ccc2cc(O)cc(-c3ncc4c(N5C[C@H]6CC[C@@H](C5)N6)nc(OC[C@H]5CC6CCN5C[C@@H]6C=C)nc4c3F)c12`, the IC50 in the assay on ASPC1 (Homo sapiens, ASPC1, 120 h) was over 50 nM; in the assay on A549 (Homo sapiens, A549, 120 h), over 5000 nM; in the assay on NCI-H1299, over 5000 nM; in the assay with AGS (Homo sapiens, AGS, 120 h) it was over 50 nM.

Take `C#Cc1c(F)ccc2cc(O)cc(-c3ncc4c(N5C[C@H]6CC[C@@H](C5)N6)nc(OC[C@]56CCCN5[C@@H](Cn5cc(C(C)(C)O)nn5)CC6)nc4c3F)c12` (racemic): the IC50 in the assay on ASPC1 (Homo sapiens, ASPC1, 120 h) was over 50 nM; in the assay on A549 (Homo sapiens, A549, 120 h) it was over 5000 nM; with NCI-H1299, over 5000 nM; in the assay on AGS (Homo sapiens, AGS, 120 h), over 50 nM.

In the case of `C#CCN(C)C(=O)OC[C@H]1CC[C@@]2(COc3nc(N4C[C@H]5CC[C@@H](C4)N5)c4cnc(-c5cc(O)cc6ccc(F)c(C#C)c56)c(F)c4n3)CCCN12`, the IC50 with ASPC1 (aspc1) is 207 nM; in the assay on A549 (a549), over 5000 nM; with AGS (ags) it was 59.3 nM.

Regarding `[2H]C([2H])(Oc1nc(N2C[C@H]3CC[C@@H](C2)N3)c2cnc(-c3cc(O)cc4ccc(F)c(C#C)c34)c(F)c2n1)C12CC(=C)CN1CC1(CC1)C2` (stereo not given in full), the IC50 with ASPC1 (Homo sapiens, ASPC1, 120 h) came to 3.9 nM; in the assay on A549 (Homo sapiens, A549, 120 h), 944 nM; in the assay on NCI-H1299 it was 3020 nM; in the assay on AGS (Homo sapiens, AGS, 120 h), 1.1 nM.
